Measurements from patent US6436310B1, “Deicing solution” (Sears Petroleum & Transport Corporation, priority 1998, dated 2002).
Where two headings read alike, the source gives them in different places.

What was measured:
[1] = calculated from data in SHRP H-205.2; cited from earlier work
[2] = Freezing point of simple carbohydrates with 15% magnesium chloride; assay type: physicochemical; details: 15% MgCl2
Procedure: There is available commercially a wide range of carbohydrates with varying carbohydrate compositions. An evaluation was conducted using simple sugars, disaccharides and polysaccharides in an attempt to determine the effect of molecular weight and solute concentration upon freezing point.

[3] = SHRP H-205.2 Test Method for Ice Melting of Liquid Deicing Chemicals; details: 25° F. (−4° C.)
Procedure: Fraction E was also examined for ice melting characteristics at 25° F.

Rats = details: cited from earlier work
[4] = aqueous solution

Structure (SMILES)	Lbs weight ice melted per lb weight of inorganic salt [1] [Lbs per lb]	Oral LD 50 (Rats) (Rats) [mg/kg]	further results
[Ca+2].[Cl-].[Cl-] [Ca Cl2, calcium chloride]	7.3		
OC[C@H]1O[C@@H](O[C@H]2[C@H](O)[C@@H](O)C(O)O[C@@H]2CO)[C@H](O)[C@@H](O)[C@H]1O (some centres unmarked) [Lactose]			comparison in reducing freezing point [2]: somewhat better than maltose
[Cl-].[Cl-].[Mg+2] [Mg Cl2, magnesium chloride]			Lbs weight ice melted per lb weight of inorganic salt [3]: 16.9 Lbs per lb
CC(=O)[O-].[K+] [Potassium acetate, potassium acetate]		3250	
[Cl-].[Na+] [Sodium Chloride, sodium chloride]	7.5	3000	
CC(=O)[O-].[Na+] [Sodium acetate, sodium acetate]		3550	solids content at the eutectic point [4]: 23%
